Data reported in BigSolDB 2.1.

Oc1ccccc1/C=N/CC/N=C/c1ccccc1O
solubility (mole fraction)
Conditions | in dichloromethane | in diethyl ether | in ethanol | in methanol | in n-hexane | in toluene
268.15 K | 0.0352 | 0.00119 | – | – | – | –
273.15 K | 0.0369 | 0.00136 | – | – | – | –
278.15 K | 0.0408 | 0.00165 | 0.00026 | 0.0003 | – | 0.00947
283.15 K | 0.0469 | 0.00193 | 0.00035 | 0.00036 | – | 0.0115
288.15 K | 0.0533 | 0.00232 | 0.00048 | 0.00049 | 0.00084 | 0.014
293.15 K | 0.0605 | 0.00281 | 0.00069 | 0.00064 | 0.00095 | 0.0164
298.15 K | 0.0696 | 0.0035 | 0.0009 | 0.00081 | 0.00112 | 0.0198
303.15 K | 0.0775 | 0.00455 | 0.00112 | 0.00099 | 0.00127 | 0.0256
308.15 K | – | – | 0.00147 | 0.00125 | 0.00143 | 0.0305
313.15 K | – | – | 0.00199 | 0.00155 | 0.00161 | 0.0379
318.15 K | – | – | 0.00252 | 0.00185 | 0.00186 | 0.047
